Assay results from patent US8466202B2, “Anthracenedione compounds” (Sunten Phytotech Co., Ltd., priority 2006, dated 2013).
Several values for one entry are separate records, joined by “and”; a condition that tells them apart may be missing. Equal entries are not always repeated.

Key:
healthy male S.D. rats = assay: Feces production in rats over the 10-day period (Example 3); assay type: in vivo, rat; details: for increase of the feces amount (wet weight): vs control of the same group; for Pellet count / Water content / Wet Weight: Sennosides 3.35 mg/kg; for increase of the feces amount (wet weight), average: average of Days 1, 5 and 10
Description: During this period, the body weights of the rats were weighed each day and recorded. Feces of each rat were studied three times during the period for any unusual observations. Specifically, the amounts of feces were weighed on Days 11, 15, 18, and 21. During observation, each rat was placed in a metabolic cage. Feces were collected every twenty-four hours. The number of collected feces pellets was counted, and the pellets' shapes and colors were evaluated. After weighing the moist feces, they were dried in an oven at 100° C. for twenty-four hours. The water content from the feces was calculated according to the following formula: Water content percentage=[(wet weight−dry weight)/wet weight]×100%. (I) The results are summarized in Table 2 below: The aforementioned STD05 and compounds were studied for the laxative activity. Healthy male S.D. rats (BioLASCO Taiwan Co. Ltd.) were divided into three groups (i.e., Groups 1-3) in this study. In Group I, 6 rats, as negative control, were given no treatment; 6 rats, as positive control, were given 3.35 mg/kg/day Sennosides (Through®, Chung Mei Pharmaceutical Co., Ltd; Active ingredient: Sennosides 20 mg, as sennoside A+B 12 mg, Lot. 012F 006); 6 rats were treated STD05 (8 mg/kg/day); 6 rats were treated with an extract fraction containing aloe-emodin, rhein, and emodin (“ARE”, 8 mg/kg/day); 6 rats were treated with Aloe-emodin (4 mg/kg/day); and 6 rats were treated with Rhein (4 mg/kg/day). In Group II, 6 rats, as negative control, were given no treatment; 6 rats, as positive control, were given 3.35 mg/kg/day Sennosides; 6 rats were treated STD05 (24 mg/kg/day); 6 rats were treated with an extract fraction containing ARE (24 mg/kg/day); 6 rats were treated with Chrysophanol (4 mg/kg/day); and 6 rats were treated with Emodin (4 mg/kg/day). In Group III, 6 rats, as negative control, were given no treatment; 6 rats were treated with Physcoin (4 mg/kg/day); and 6 rats were treated with a mixture of chrysophanol and physcion (8 mg/kg/day, “CP”). The experiments were carried out under controlled temperature, humidity, and lighting. Each rat was fed standard rat food and water ad libitum in housing that provided a 12-hour light/dark cycle. For statistical comparison, all of the rats were divided into six sets according to the body weights. The first part of the experiment studied the effect of the test substances on feces production. During the 10-day period, the body weights of the rats were weighed each day and recorded. The rat's feces was also studied three times in the manner described above during the 10-day period for any unusual observations. During the 10-day period, any rat that appeared dying was euthanized, dissected, and examined for any illness or injury. Any complications or illness were analyzed by H&E stains to determine the cause of death and to allow for dosage reconsiderations for future experiments. Summarized in Table 4 below are the effects of the compounds, mixtures, or extracts on the rat body weights. During the period, feces produced by the rats were studied days 1, 5, and 10 in the same manner described above. […] In the 10-day period, the rats administered with STD05 produced more feces (wet weight) that the rats in the control group by about 32%. In addition, the pellet counts for the rats administered with STD05 were greater than those for the control rats by about 20%. Furthermore, STD05 increased the water content in feces by about 18%. The same experiments were conducted on rats administered with physcion, aloe-emodin, chrysophanol, rhein, emodin, CP, and ARE.

[1] = Body weight of rats over the 10-day period (Example 3); assay type: in vivo, rat; set-up: Body weight Difference: unit not given here; details: Sennosides 3.35 mg/kg/day; for Body weight Difference, Mean / Body weight End Day 10, Mean: group mean; for Body weight Difference, Mean / Body weight Difference: Day 10 minus Day 1; for Body weight Difference / Body weight End Day 10: individual rats
Description: The aforementioned STD05 and compounds were studied for the laxative activity. Healthy male S.D. rats (BioLASCO Taiwan Co. Ltd.) were divided into three groups (i.e., Groups 1-3) in this study. In Group I, 6 rats, as negative control, were given no treatment; 6 rats, as positive control, were given 3.35 mg/kg/day Sennosides (Through®, Chung Mei Pharmaceutical Co., Ltd; Active ingredient: Sennosides 20 mg, as sennoside A+B 12 mg, Lot. 012F 006); 6 rats were treated STD05 (8 mg/kg/day); 6 rats were treated with an extract fraction containing aloe-emodin, rhein, and emodin (“ARE”, 8 mg/kg/day); 6 rats were treated with Aloe-emodin (4 mg/kg/day); and 6 rats were treated with Rhein (4 mg/kg/day). In Group II, 6 rats, as negative control, were given no treatment; 6 rats, as positive control, were given 3.35 mg/kg/day Sennosides; 6 rats were treated STD05 (24 mg/kg/day); 6 rats were treated with an extract fraction containing ARE (24 mg/kg/day); 6 rats were treated with Chrysophanol (4 mg/kg/day); and 6 rats were treated with Emodin (4 mg/kg/day). In Group III, 6 rats, as negative control, were given no treatment; 6 rats were treated with Physcoin (4 mg/kg/day); and 6 rats were treated with a mixture of chrysophanol and physcion (8 mg/kg/day, “CP”). The experiments were carried out under controlled temperature, humidity, and lighting. Each rat was fed standard rat food and water ad libitum in housing that provided a 12-hour light/dark cycle. For statistical comparison, all of the rats were divided into six sets according to the body weights. The first part of the experiment studied the effect of the test substances on feces production. During the 10-day period, the body weights of the rats were weighed each day and recorded. The rat's feces was also studied three times in the manner described above during the 10-day period for any unusual observations. During the 10-day period, any rat that appeared dying was euthanized, dissected, and examined for any illness or injury. Any complications or illness were analyzed by H&E stains to determine the cause of death and to allow for dosage reconsiderations for future experiments. Summarized in Table 4 below are the effects of the compounds, mixtures, or extracts on the rat body weights.

[2] = Group II, Day 1, STD05 24 mg/kg, ARE 24 mg/kg, Chrysophanol 4 mg/kg, Emodin 4 mg/kg
[3] = Group II, Day 5, STD05 24 mg/kg, ARE 24 mg/kg, Chrysophanol 4 mg/kg, Emodin 4 mg/kg
[4] = Group II, Day 10, STD05 24 mg/kg, ARE 24 mg/kg, Chrysophanol 4 mg/kg, Emodin 4 mg/kg
[5] = Group II, STD05 24 mg/kg, ARE 24 mg/kg, Chrysophanol 4 mg/kg, Emodin 4 mg/kg
[6] = Group I, Day 1, STD05 8 mg/kg, ARE 8 mg/kg, Aloe-emodin 4 mg/kg, Rhein 4 mg/kg
[7] = Group I, Day 5, STD05 8 mg/kg, ARE 8 mg/kg, Aloe-emodin 4 mg/kg, Rhein 4 mg/kg
[8] = Group I, Day 10, STD05 8 mg/kg, ARE 8 mg/kg, Aloe-emodin 4 mg/kg, Rhein 4 mg/kg
[9] = Group I, STD05 8 mg/kg, ARE 8 mg/kg, Aloe-emodin 4 mg/kg, Rhein 4 mg/kg

Row | SMILES | increase of the feces amount (wet weight) (healthy male S.D. rats; Day 1) [%] | increase of the feces amount (wet weight) (healthy male S.D. rats; Day 5) [%] | increase of the feces amount (wet weight) (healthy male S.D. rats; Day 10) [%] | increase of the feces amount (wet weight), average (healthy male S.D. rats) [%] | Pellet count (healthy male S.D. rats; [6]) | Water content (healthy male S.D. rats; [6]) [%] | Wet Weight (healthy male S.D. rats; [6]) [g] | Pellet count (healthy male S.D. rats; [7]) | Water content (healthy male S.D. rats; [7]) [%] | Wet Weight (healthy male S.D. rats; [7]) [g] | Pellet count (healthy male S.D. rats; [8]) | Water content (healthy male S.D. rats; [8]) [%] | Wet Weight (healthy male S.D. rats; [8]) [g] | Body weight Difference, Mean [1, 9] [g] | Body weight End Day 10, Mean [1, 9] [g] | Body weight Difference [1, 9] | Body weight End Day 10 [1, 9] | other results
1 | Cc1cc(O)c2c(c1)C(=O)c1cc(O)cc(O)c1C2=O [Emodin] | −30 | 12 | 4 | −5 |  |  |  |  |  |  |  |  |  |  |  |  |  | Pellet count (healthy male S.D. rats; [2]): 90; Water content (healthy male S.D. rats; [2]): 42.38%; Wet Weight (healthy male S.D. rats; [2]): 16.86 g; Pellet count (healthy male S.D. rats; [3]): 112; Water content (healthy male S.D. rats; [3]): 51.00%; Wet Weight (healthy male S.D. rats; [3]): 25.51 g; Pellet count (healthy male S.D. rats; [4]): 106; Water content (healthy male S.D. rats; [4]): 53.64%; Wet Weight (healthy male S.D. rats; [4]): 26.21 g; Body weight Difference, Mean [1, 5]: 32 g; Body weight End Day 10, Mean [1, 5]: 379 g; Body weight Difference [1, 5]: 30 and 35 (3×) and 45 and 10; Body weight End Day 10 ([1]; Group II, STD05 24 mg/kg, ARE 24 mg/kg, Chrysophanol 4 mg/kg, Emodin 4 mg/kg, in g (unit assumed)): 370 and 380 and 405 and 340 and 385 and 395
2 | O=C1c2cccc(O)c2C(=O)c2c(O)cc(CO)cc21 [Aloe-emodin] | 27 | 9 | 20 | 19 | 98 | 42.48 | 17.00 | 104 | 41.98 | 20.21 | 125 | 50.48 | 28.86 | 58 | 330 | 45 and 50 (2×) and 40 (2×) and 55 | 315 (2×) and 335 and 345 (2×) and 325 | 
3 | O=C(O)c1cc(O)c2c(c1)C(=O)c1cccc(O)c1C2=O [Rhein] | 31 | −9 | −1 | 7 | 102 | 42.58 | 17.57 | 89 | 44.55 | 16.88 | 119 | 46.53 | 23.52 | 51 | 331 | 55 (4×) and 50 and 35 | 330 (2×) and 340 (2×) and 310 and 335 | 
